Laboratory results published in article PMC9656702, “Unveiling a New Selenocyanate as a Multitarget Candidate with Anticancer, Antileishmanial and Antibacterial Potential” (Molecules, 2022).
Read-outs that look alike come from different tables or passages of the source.

Columns and labels:
[1] = test system: 184B5; experiment: MTT assay in nonmalignant mammary gland cells 184B5; format: cell-based; settings: nontumorigenic cells, MTT assay, 48 h, mean ± SD
Experimental: To assess their possible selectivity, the synthesized selenocompounds were then tested in a mammary gland (184B5) nonmalignant cell line, and the selectivity indexes (SI) were determined as the ratio of the IC50 values obtained for the nonmalignant cells and the homolog cancer cells.
(§1) The cell lines were obtained from the American Type Culture Collection (ATCC). All the cancer cell lines (HT-29, HCT-116, H1299, HTB-54, MDA-MB-231 and MCF-7) and the nontumorigenic cells (184B5) were maintained in RPMI 1640 medium (Gibco), supplemented with 10% fetal bovine serum (FBS; Gibco) and 1% antibiotics (10.00 units/mL penicillin and 10.00 mg/mL streptomycin; Gibco). Cells were preserved in tissue culture flasks at 37 °C and 5% CO2. Culture medium was replaced every three days.
(§2) The cytotoxic effect of each compound was initially tested at seven different concentrations ranging between 0.5 and 100 µM in the cell lines mentioned above. The cells were seeded (1 × 10^4 cells per well) in 96-well plates and incubated at 37 °C and 5% CO2 for 24 h. After attachment, cells were treated with either dimethyl sulfoxide (DMSO) or increasing concentrations of the corresponding selenocompound for 48 h. The effect of the compounds on cell viability was determined by the MTT assay. In brief, 20 µL of MTT (5 mg/mL) was added to each well 2.5 h prior to experiment termination. At the end of the incubation, the medium was removed, and the formazan crystals were dissolved in 50 µL of DMSO. Absorbance was measured at 550 nm on a microplate reader. IC50 values were calculated using OriginPro 8.5.1. software by nonlinear curve fitting. Selectivity indexes were calculated as the ratio of the IC50 values determined for the nonmalignant and the tumoral cells in the breast cell lines (IC50 (184B5)/IC50 (MDA-MB-231) and IC50 (184B5)/IC50 (MCF-7)). Data were obtained from at least three independent experiments performed in triplicates.

[2] = test system: HTB-54; experiment: Antiproliferative MTT assay, HTB-54 lung cancer cells; format: cell-based, human; settings: Homo sapiens, HTB-54; MTT assay, 48 h, mean ± SD; read-out: IC50 HTB-54
Experimental: (§3) The antiproliferative activities of the cinnamyl and benzodioxyl derivatives were assessed against six human cell lines of three different types of cancer (colon, lung, and breast) using the 3-(4,5-dimethylthiazol-2-yl)-2,5-diphenyltetrazolium bromide (MTT) assay at seven concentrations for 48 h. The results are expressed as the IC50 values and are outlined in Table 1.
as §1, §2

[3] = test system: HT-29; experiment: Antiproliferative MTT assay, HT-29 colon cancer cells; format: cell-based, human; settings: MTT assay, 48 h, mean ± SD, read-out: IC50 HT-29
Experimental: as §3, §1, §2

[4] = test system: S. faecalis; experiment: MIC and MBC assay, S. faecalis; format: cell-based, Streptococcus faecalis; settings: Enterococcus faecalis; Gram-positive, 24 h at 37 °C; read-out: MIC S. faecalis
Experimental: (§4) The minimum inhibitory concentration (MIC) and the minimum bactericidal concentration (MBC) values of the selenocompounds were determined in a panel of six bacterial strains as a first approach to assess their antibacterial activity. Thus, the synthesized derivatives were tested against the Gram-negative bacteria Escherichia coli (E. coli), Klebsiella pneumoniae (K. pneumoniae) and Citrobacter freundii (C. freundii); and the Gram-positive bacteria Staphylococcus aureus (S. aureus), Streptococcus faecalis (S. faecalis), and Staphylococcus epidermidis (S. epidermidis). […]
(§5) All the selenocompounds were screened for their in vitro inhibitory activity against three Gram-negative (E. coli, K. pneumoniae and C. freundii) and three Gram-positive (S. aureus, S. faecalis and S. epidermidis) bacteria. Bacterial strains were kindly provided by the Department of Microbiology and Parasitology of the University of Navarra. The bacterial cells were grown in tryptic soy agar (TSA) plates and maintained at 4 °C.
(§6) The compounds were firstly dissolved in DMSO and serially diluted in a 96-well plate in tryptic soy broth (TSB) with eleven concentrations ranging from 400 µg/mL to 0.4 µg/mL with a final volume of 100 µL. Subsequently, 100 µL of a diluted suspension of bacterial cells with an optical density of 0.125 measured at 600 nm in TSB (inoculum of approximately 10^5 CFU/mL) was added to each well and incubated at 37 °C for 24 h. After the incubation period, each well was analyzed for the presence or absence of visual growth of bacterial cells. The lowest concentration of the test compound at which no visible growth occurred was determined as the MIC values. After incubation, 10 µL of the bacterial suspension from each well that presented antibacterial activity was added to divided TSA plates and incubated at 37 °C overnight.

[5] = test system: S. aureus; experiment: MIC and MBC assay, S. aureus; format: cell-based, Staphylococcus aureus; settings: Staphylococcus aureus; Gram-positive, 24 h at 37 °C
Experimental: as §4, §5, §6

[6] = test system: MCF-7; experiment: Antiproliferative MTT assay, MCF-7 breast cancer cells; format: cell-based, human; settings: MTT assay, 48 h, mean ± SD
Experimental: as §3, §1, §2

[7] = test system: HCT-116; experiment: Antiproliferative MTT assay, HCT-116 colon cancer cells; format: cell-based, human; settings: MTT assay, 48 h, mean ± SD, read-out: IC50 HCT-116
Experimental: as §3, §1, §2

[8] = test system: K. pneumoniae; experiment: MIC and MBC assay, K. pneumoniae; format: cell-based, Klebsiella pneumoniae; settings: Klebsiella pneumoniae; Gram-negative, 24 h at 37 °C; read-out: MIC K. pneumoniae
Experimental: as §4, §5, §6

[9] = test system: Leishmania infantum promastigotes; experiment: Parasite viability MTT assay, L. infantum promastigotes; format: cell-based; settings: Leishmania infantum, 48 h, promastigotes, MTT assay, mean ± SD, read-out: IC50 Leishmania infantum
Experimental: (§7) The cytotoxic activities of all the derivatives against Leishmania major and Leishmania infantum promastigotes were studied by the MTT assay after exposing the parasites to five different concentrations of each compound for 48 h. Miltefosine and paromomycin, two currently available drugs for the treatment of leishmaniasis, were used as positive controls.
(§8) L. major (clone VI, MHOM/IL/80/Friendlin) and L. infantum (BCN-150) promastigotes were grown in continuous stirred M199 1X medium (Sigma, St Louis, MO, USA) at 26 °C supplemented with 25 mM HEPES (pH 7.2), 10% heat-inactivated FBS (Gibco, Gaithersburg, MD, USA), 0.1 mM adenine, 0.0005% (w/v) hemin, 0.0001% (w/v) biotin, 100 UI/mL penicillin and […] streptomycin (Gibco, Gaithersburg, MD, USA). Media were changed before each experiment to achieve exponential growth.
(§9) The antileishmanial activity was assessed by the MTT assay as previously described. Briefly, 3 × 10^6 promastigotes of both Leishmania strains were placed into a 96-well plate with supplemented M199 1X medium during their logarithmic growth phase. The parasites were treated with five increasing concentrations of the compounds ranging between 0.1 and 1000 µM at 26 °C for 48 h. At the termination point, 20 µL of MTT (5 mg/mL) was added and further incubated for 4 h. The resultant formazan crystals formed were dissolved in 80 µL of DMSO and the absorbance was measured at 550 nm on a microplate reader. IC50 values were calculated using OriginPro 8.5.1. software by nonlinear curve fitting. Miltefosine and paromomycin were used as reference drugs. Data were obtained from at least three independent experiments performed in triplicates.

[10] = test system: MDA-MB-231; experiment: Antiproliferative MTT assay, MDA-MB-231 breast cancer cells; format: cell-based, human; settings: Homo sapiens, MDA-MB-231; MTT assay, 48 h, mean ± SD; read-out: IC50 MDA-MB-231
Experimental: as §3, §1, §2

[11] = test system: Leishmania major promastigotes; experiment: Parasite viability MTT assay, L. major promastigotes; format: cell-based; settings: Leishmania major, 48 h, promastigotes, MTT assay, mean ± SD, read-out: IC50 Leishmania major
Experimental: as §7, §8, §9

[12] = test system: C. freundii; experiment: MIC and MBC assay, C. freundii; format: cell-based, Citrobacter freundii; settings: Citrobacter freundii; Gram-negative, 24 h at 37 °C; read-out: MIC C. freundii
Experimental: as §4, §5, §6

[13] = test system: E. coli; experiment: MIC and MBC assay, E. coli; format: cell-based, Escherichia coli; settings: Escherichia coli; Gram-negative, 24 h at 37 °C
Experimental: as §4, §5, §6

[14] = test system: S. epidermidis; experiment: MIC and MBC assay, S. epidermidis; format: cell-based, Staphylococcus epidermidis; settings: Staphylococcus epidermidis; Gram-positive, 24 h at 37 °C; read-out: MIC S. epidermidis
Experimental: as §4, §5, §6

IC50 [11]	SMILES	IC50 ([1]; Homo sapiens, 184B5, 48 h, read-out: IC50 184B5)	IC50 184B5 [1]	melting point	IC50 [2]	IC50 ([3]; Homo sapiens, HT-29, 48 h)	IC50 [3]	MIC [4]	MIC [5]	IC50 ([6]; Homo sapiens, MCF7, read-out: IC50 MCF-7)	IC50 MCF-7 [6]	IC50 ([7]; Homo sapiens, HCT-116, 48 h)	IC50 [7]	MIC [8]	IC50 [9]	IC50 [10]	MIC [12]	MIC [13]	MIC [14]
66.6 ± 11.6 µM	CCCCCCCCCCCCCCCCOP(=O)([O-])OCC[N+](C)(C)C [Miltefosine, reference compound]																		
71 ± 3.3 µM	NC[C@@H]1O[C@H](O[C@H]2[C@@H](O)[C@H](O[C@@H]3[C@@H](O)[C@H](N)C[C@H](N)[C@H]3O[C@H]3O[C@H](CO)[C@@H](O)[C@H](O)[C@H]3N)O[C@@H]2CO)[C@H](N)[C@@H](O)[C@@H]1O [Paromomycin, reference compound]														18 ± 1 µM				

SMILES	IC50 [11]	IC50 ([1]; Homo sapiens, 184B5, 48 h, read-out: IC50 184B5)	IC50 184B5 [1]	melting point	IC50 [2]	IC50 ([3]; Homo sapiens, HT-29, 48 h)	IC50 [3]	MIC [4]	MIC [5]	IC50 ([6]; Homo sapiens, MCF7, read-out: IC50 MCF-7)	IC50 MCF-7 [6]	IC50 ([7]; Homo sapiens, HCT-116, 48 h)	IC50 [7]	MIC [8]	IC50 [9]	IC50 [10]	MIC [12]	MIC [13]	MIC [14]
c1cc2c(cc1C[Se][Se]Cc1ccc3c(c1)OCO3)OCO2 [Compound 2b, 1,2-Bis(benzo[d][1,3]dioxol-5-ylmethyl)diselenide]	49.4 ± 16.7 µM	> 100 µM	did not display any activity	78 to 80 °C	41.6 ± 9.4 µM	< 12 µM	10.1 ± 1.2 µM	> 200 µg/mL	> 200 µg/mL	> 100 µM	completely inactive	~11 µM	11.3 ± 1 µM	> 200 µg/mL	56.1 ± 8.1 µM	46.6 ± 12.1 µM	> 200 µg/mL	> 200 µg/mL	> 200 µg/mL
